Test results: patent US20050288369A1, “Novel n-hydroxy thiourea, urea and amide compounds and the pharmaceutical compositions comprising the same” (priority 2002, published 2005)

Tests used:
[1] = target: T1, vanilloid receptor-1 (VR1) (Rattus norvegicus, UniProt O35433); assay: [3H]RTX competition binding assay, VR1-expressing CHO cells; conditions: displacement of bound [3H]RTX; mean±SEM, 3 experiments
T1 construct: expressed in transfected cells; host or cells: Chinese Hamster Ovary cells (CHO, ATCC CCL-61), Tet-off inducible expression
Procedure: The binding affinity activity of the target compounds for vanilloid receptor-1 was measured by an in vitro receptor binding affinity assay. In the receptor binding assay, the compounds were evaluated for their ability to displace bound [^3H]RTX from the receptor. The results are expressed in terms of Ki values (mean±SEM, 3 experiments) which represent the concentration of the non-radioactive ligand that displaces half of the bound labeled RTX.
The VR receptor binding affinity activity of the inventive compounds was measured by using Chinese Hamster Ovary (CHO, ATCC, No. CCL-61) cell whose cDNA of VR1 (pUHG102 VR1 plasmid) was transfected, which can control the expression of VR1 according to the presence of tetracycline and Tetracycline on/off system (pTet off regulatory plasmid, Clontech. Inc., USA) that the expression of VR1 is induced by removing tetracycline from the medium. […] The cells were cultured after removing tetracycline prior to 48 hours. The tetracycline free culture medium was seeded at the bottom of T75 flask, incubated to the extent that its density reaches at 90%, and washed once with PBS buffer solution. The cells were collected by using saline solution containing 5 mM EDTA and subjected to centrifugation slightly to obtain precipitates, further, which had been kept at the temperature of −20° C. before use.
Experiments were designed to assess inhibition of specific [^3H]RTX binding to membranes by non-radioactive compounds. The binding assay mixture containing [^3H]RTX ([…]), various concentrations of competitive binding substances, 0.25 mg/ml of BSA (Cohn fraction V), 5×10^4 ˜5×10^5 numbers of VR1 and the expression cell, was admixed with saline solution containing 450 μl of Ca^2+ and Mg^2+ and […] of BSA. Non-specific binding assay was measured after mixing 100 nM of non-radioactive RTX thereto. The reaction mixture was treated for 60 min at 37° C. and the reaction was quenched by cooling over ice. RTX bound to the membrane of VR1 was subjected to centrifugation with maximum velocity for 15 minutes to precipitate its membrane residue, which results in separating from non-binding RTX. The tips of tube containing above precipitate was cut off and the amount of bound radioisotope was determined by scintillation counter (LS6500, Beckman-Coulter, USA). The measurement of binding was determined in triplicate in each experiment, and each experiment was repeated at least two times. Binding data were analyzed by fitting to the Hill equation and the Ki (equilibrium binding parameter) index, the Bmax (maximum binding parameter) index, and the cooperativity index etc., were determined by using origin 6.0 program (Origin, MicroCal Co., USA).
An initial compound was dissolved in DMSO (dimethyl sulfoxide) and diluted with saline solution containing Ca^2+ and […], and […] of BSA.

VR1 [2] = target: T2, VR1 (Rattus norvegicus, UniProt O35433); assay: 45Ca influx test in CHO cells expressing VR1, antagonistic activity against 50 nM capsaicin; type: cell-based; conditions: 45Ca uptake stimulated with 50 nM capsaicin
T2 construct: expressed in transfected cells; host or cells: Chinese Hamster Ovary cells (CHO, ATCC CCL-61), Tet-off inducible expression
Procedure: (§1) The ^45Ca Influx test by using CHO cells of the inventive compounds was measured by using Chinese Hamster Ovary (CHO, ATCC, No. CCL-61) cell whose cDNA of VR1 (pUHG102 VR1 plasmid) was transfected, which can control the expression of VR1 according to the presence of tetracycline and Tetracycline on/off system (pTet off regulatory plasmid, Clontech. Inc., USA) that the expression of VR1 is induced by removing tetracycline from the medium.
(§2) The CHO cells were poured onto 24 well plates to the extent that its density reaches at 30% and incubated for 24 hours at 37° C. The culture medium was exchanged to tetracycline free medium to induce the expression of VR1 and tested after 36 hours.
(§3) Together with 0.25 mg/ml BSA (Sigma A2153, USA), 1 Ci/ml ^45Ca(5-30 Ci/g used, ICN. Co., 62005 RT, U.S.A.), the test samples with increasing concentrations were added to each well. At the quenching moment of the incubation with ^45Ca, the cultured cells were removed from the medium, washed three times with cool PBS buffer solution containing 1.8 mM CaCl2 and 400 μl of RIPA buffer solution (50 mM Tris pH 7.4; 150 mM sodium chloride; 0.1% SDS; 1% sodium deoxycholate), was added in each well to homogenize the cells. The plates were stirred for 20 minutes slowly and 300 μl of cell lysate was transferred to scintillation vials from each wells. The radioactivity was determined by scintillation counter.
(§4) The data were assessed by determining four wells per each data point in each experiment and analyzed in computer by being transformed into Hill equation. The experiments were determined in triplicate in each sample comprising inventive compounds and control groups.
In order to determine the antagonistic activity, ^45Ca^2+-uptake stimulating-mixture was added with 50 nM capsaicin and the antagonistic activity was determined by the method for the agonistic activity. In case that 10 μM a certain compound cannot change the capsaicin-inducing activity, the compound shall be regarded as an […].

Male ICR mice = assay: Acetic acid-induced writhing test; type: in vivo; conditions: for ED50: Mus musculus, ip, i.p. 30 mins before 1.2% acetic acid i.p., 50% reduction of the number of writhes; for analgesic effect compared with thiourea compounds JYL-827 and 1433: writhing test
Procedure: The acetic acid-induced writhing test for testing the analgesic activity of inventive compounds prepared from above Examples was performed by the procedure described in the literature (Lee, J. W., Bioorganic & Medicinal Chemistry, pp 1713-1720, 2001).
Male ICR mice having its mean body weight of 25 g (CD-1; Biogenomics Co. Korea) were reared in lighting controlled environment (12 hrs on/12 hrs off) maintaining with temperatures at 22±2° C. and humidity at 50±5% and allowed to eat a diet and to drink tap water ad lib.
Mice were fasted overnight prior to testing and adopted to the environment.
0.3 ml of acetic acid solution (1.2%) was administrated in the mice intraperitoneally and then the mice were put into the transparent acryl box (15×15×15 cm). 5 minutes later, the number of abdominal constrictions was counted for 20 minutes. Each group consisting of ten mice was pretreated with test compounds or solvent (0.2 ml, i.p.) 30 mins before the injection of acetic acid. Test compounds were dissolved in the mixture of ethanol/Tween-80/saline ([…]) or cremophor EL/DMSO/d-water ([…]).
Analgesic activity of each drug was determined at several different concentrations.
The index of analgesic activity (eff) was defined as below Empirical formula 1. Analgesic activity (eff)=100−{(No. of abdominal constriction of test group/No. of abdominal constriction of control group)×100} [Empirical formula 1]
Analgesic activity was expressed as the reduction in the number of abdominal constrictions, of control animals (vehicle-pretreated mice) and animals pretreated with test compounds.

VR1 [3] = target: T2, VR1; assay: 45Ca influx test in CHO cells expressing VR1, agonistic activity; type: cell-based; conditions: 45Ca uptake
Procedure: The ^45Ca Influx test by using CHO cells expressing VR1 was performed by the procedure described in the literature (Lee, J. W., Bioorganic & Medicinal Chemistry, pp 1713-1720, 2001).
as §1, §2
as §3, with “In radioactive ^45Ca uptake experiment, The cells were incubated in […] of DMEM medium (Dulbecco's modified Eagles medium: Gibco-BRL, 31600-083) containing free of serum and 1.8 mM CaCl2 for 10 minutes at 37*C. Together” for “Together”
as §4

T2 sequence (O35433 whole entry): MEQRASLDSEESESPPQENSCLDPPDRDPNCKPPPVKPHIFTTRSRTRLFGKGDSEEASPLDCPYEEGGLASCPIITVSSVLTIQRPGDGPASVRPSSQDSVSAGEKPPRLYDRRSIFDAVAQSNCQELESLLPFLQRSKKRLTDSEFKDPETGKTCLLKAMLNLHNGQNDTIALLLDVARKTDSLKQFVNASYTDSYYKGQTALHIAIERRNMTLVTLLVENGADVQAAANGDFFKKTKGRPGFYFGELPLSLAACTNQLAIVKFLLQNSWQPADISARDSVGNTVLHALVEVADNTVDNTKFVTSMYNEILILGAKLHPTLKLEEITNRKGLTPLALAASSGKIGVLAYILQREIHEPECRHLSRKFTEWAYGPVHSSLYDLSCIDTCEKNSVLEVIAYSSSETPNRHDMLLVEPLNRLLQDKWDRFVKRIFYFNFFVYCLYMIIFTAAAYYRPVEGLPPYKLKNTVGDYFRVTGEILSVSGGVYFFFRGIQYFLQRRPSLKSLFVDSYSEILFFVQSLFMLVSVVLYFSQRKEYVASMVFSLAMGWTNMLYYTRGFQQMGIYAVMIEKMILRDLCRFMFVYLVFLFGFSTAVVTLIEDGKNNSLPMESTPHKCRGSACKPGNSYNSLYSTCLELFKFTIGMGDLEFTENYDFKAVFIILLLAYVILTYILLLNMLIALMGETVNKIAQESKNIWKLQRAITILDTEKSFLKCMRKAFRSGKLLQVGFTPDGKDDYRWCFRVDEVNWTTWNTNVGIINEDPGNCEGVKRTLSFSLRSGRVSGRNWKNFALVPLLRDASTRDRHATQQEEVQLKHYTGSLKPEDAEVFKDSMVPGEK
T1 sequence (O35433 whole entry): as above

Compound | Ki [1] [nM] | IC50 (VR1 [2]) [nM] | ED50 (Male ICR mice) [µg/kg] | melting point [°C] | EC50 (VR1 [3]) [nM] | analgesic effect compared with thiourea compounds JYL-827 and 1433 (Male ICR mice) | analgesic effect, fold stronger than that of Ketorolac (Male ICR mice; ratio of writhing test ED50 values)
CC(C)(C)c1ccc(CN(O)C(=S)NCc2ccc(NS(C)(=O)=O)cc2)cc1 [Compound 28, N-(4-tert-butylbenzyl)-N-hydroxy-N-[4-(methylsulfonylamino)benzyl]thiourea] | 1090 | 470 | 1560 | 137 |  |  | 
COc1cc(CNC(=S)N(O)Cc2ccc(C(C)(C)C)cc2)ccc1NS(C)(=O)=O [Compound 29, N-(4-tert-butylbenzyl)-N-hydroxy-N-[3-methoxy-4-(methylsulfonylamino)benzyl]thiourea] |  |  | 0.103 | 112.5 to 115 | 2010 |  | 
CC(C)(C)c1ccc(CN(O)C(=S)NCc2ccc(NS(C)(=O)=O)c(F)c2)cc1 [Compound 30, N-(4-tert-butylbenzyl)-N-hydroxy-N-[3-fluoro-4-(methylsulfonylamino)benzyl]thiourea] | 802 |  | 1.07 | 124 to 126 | > 7060 |  | 
Cc1ccc(CC(COC(=O)C(C)(C)C)CN(O)C(=S)NCc2ccc(NS(C)(=O)=O)cc2)cc1C (centres unmarked) [Compound 35, N-[2-(3,4-dimethylbenzyl)-3-(pivaloyloxy)propyl]-N-hydroxy-N-[4-(methylsulfonylamino)benzyl]thiourea] | 1040 | 212 | 2.6 |  | 1230 | stronger analgesic effect | 
Cc1ccc(CC(COC(=O)C(C)(C)C)CN(O)C(=S)NCc2ccc(NS(C)(=O)=O)c(F)c2)cc1C (centres unmarked) [Compound 37, N-[2-(3,4-dimethylbenzyl)-3-(pivaloyloxy)propyl]-N-hydroxy-N-[3-fluoro-4-(methylsulfonylamino)benzyl]thiourea] | 212 | 93.7 |  |  |  | stronger analgesic effect | 43,000 fold
CC(C)(C)c1ccc(CN(O)C(=O)Cc2ccc(NS(C)(=O)=O)cc2)cc1 [Compound 45, N-(4-tert-butylbenzyl)-N-hydroxy-[4-(methylsulfonylamino)phenyl] acetamide] | 6380 | 6590 |  | 161 to 163 | 3500 |  | 
CC(C)(C)c1ccc(CNC(=S)N(O)Cc2ccc(NS(C)(=O)=O)cc2)cc1 [Compound 60, N-(4-tert-butylbenzyl)-N-hydroxy-N-[4-(methylsulfonylamino)benzyl]thiourea] | 4260 | 465 |  | 124 |  |  | 
CC(C)(C)c1ccc(CNC(=O)N(O)Cc2ccc(NS(C)(=O)=O)cc2)cc1 [Compound 62, N-(4-tert-butylbenzyl)-N-hydroxy-N-[4-(methylsulfonylamino)benzyl]urea] |  |  |  | 125 | 1060 |  | 
